Molecules are shown by their SMILES. pKi: −log10 of the molar value.

The target in the test is Protein kinase C alpha type (Homo sapiens, UniProt P17252). In words: Displacement of [3H-20]-phorbol 12,13-dibutyrate(PDBU) from recombinant Protein kinase C alpha.
Usually pKi stands for −log10 of the Ki, conventionally taken in molar units. With `CCCCCCCCCCCCCC(=O)OC[C@]1(CO)CC[C@H](CC(=O)OC)O1`, the pKi was 5.57. Then `CCCCCCCC/C=C\CCCCCCCCOC(=O)/C=C1/COC(CO)(COC(C)=O)C1` (stereo not drawn), with 5.73; and `CCCCCCCCCCCCCC(=O)OCC1(CO)C/C(=C/C(=O)OC)CO1` (stereo not drawn), with 6.46. Then `CCCCCCCCCCCCCC(=O)OCC1(CO)C/C(=C\C(=O)OC)CO1` (stereo not drawn), with 6.46; and `CCCCCCCCCCCCCCOC(=O)C[C@@H]1CC[C@@](CO)(COC(=O)CCCCC)O1`, with 4.89; and `CCCCCCCC/C=C\CCCCCCCCOC(=O)/C=C1\COC(CO)(COC(C)=O)C1` (stereo not drawn), with 6.07. With `CCCCCCCCCCCCCCOC(=O)C[C@H]1CC[C@@](CO)(COC(=O)CCCCC)O1`, the pKi was 5.62. Next, `CCCCCCCCCCCCCC(=O)OC[C@]1(CO)CC[C@@H](CC(=O)OC)O1`: 4.97.

For the origin of these results see ChEMBL document CHEMBL1132430, “Protein kinase C ligands based on tetrahydrofuran templates containing a new set of phorbol ester pharmacophores” (J Med Chem, 1999).
